From US20120220603A1, “SUBSTITUTED HETEROCYCLIC DERIVATIVES FOR THE TREATMENT OF PAIN AND EPILEPSY” (ZALICUS PHARMACEUTICALS LTD., priority 2009, published 2012) come the findings set out here.

Data set [1] deals with T1, CaV3.2 T-type Ca2+ channels expressed in HEK cells (Homo sapiens, UniProt O95180).
T1 construct: expressed in transfected cells; host or cells: HEK cells
Description: CaV3.2 voltage-clamp electrophysiological assay (fast and slow inactivation). Type of data set: cell-based. The text has this:
Prior to recording currents from CaV3.2 T-type Ca^2+ channels expressed in HEK cells, the culture media was replaced with extracellular solution (ECS) containing (in mM): 142 CsCl, 10 D-glucose, 2 CaCl2, 1 MgCl2, 10 HEPES, pH adjusted to 7.4 with CsOH. Borosilicate glass patch pipettes, pulled on a P-97 micropipette puller (Sutter Instruments, Novato, Calif.) with typical resistances of 2-4 MW, were backfilled with intracellular solution containing (in mM): 126.5 Cs-methanesulphonate, 2 MgCl2, 10 HEPES, 11 EGTA, 2 Na-ATP, pH adjusted to 7.3 CsOH. […] were recorded in the whole-cell configuration at room temperature (˜21° C.) using an Axopatch 200B (Molecular Devices, Sunnyvale, Calif.) patch-clamp amplifier. Recordings were low-pass filtered at 1 kHz (−3 dB 4-pole Bessel filter), digitized at 2 kHz with a Digidata 1322A interface (Molecular Devices), and acquired using pClamp 9.2 (Molecular Devices). No leak subtraction was used. Test compounds, prepared as 30 mM stock solutions in DMSO and diluted in extracellular buffer, were applied through a gravity driven multi-barrelled array of capillaries (24 gauge) connected to reservoirs controlled by solenoid valves. The effects of compounds on CaV3.2 slow and fast inactivation were evaluated using four different voltage protocols. The voltage dependence of fast and slow channel inactivation was examined using a two pulse protocol. Data were analyzed and fitted using OriginPro v.7.5 (OriginLab, Northampton, Mass.) software.

In data set [2] the test system is Rat SNL tactile allodynia. In words: L5/L6 spinal nerve ligation (SNL) Chung pain model, tactile allodynia (von Frey). The data set is classed as in vivo. The source says: The Spinal Nerve Ligation is an animal model representing peripheral nerve injury generating a neuropathic pain syndrome. In this model experimental animals develop the clinical symptoms of tactile allodynia and hyperalgesia. L5/L6 Spinal nerve ligation (SNL) injury was induced using the procedure of Kim and Chung (Kim et al., Pain 50:355-363 (1992)) in male Sprague-Dawley rats (Harlan; Indianapolis, Ind.) weighing 200 to 250 grams.
Anaesthesia was induced with 2% isofluorane in O2 at 2 L/min and maintained with 0.5% isofluorane in O2. Rats were then shaved and aseptically prepared for surgeries. A 2 cm paraspinal incision was made at the level of L4-S2. L4/L5 was exposed by removing the transverse process above the nerves with a small rongeur. The L5 spinal nerve is the larger of the two visible nerves below the transverse process and lies closest to the spine. The L6 spinal nerve is located beneath the corner of the slope bone. A home-made glass Chung rod was used to hook L5 or L6 and a pre-made slip knot of 4.0 silk suture was placed on the tip of the rod just above the nerve and pulled underneath to allow for the tight ligation. The L5 and L6 spinal nerves were tightly ligated distal to the dorsal root ganglion. The incision was closed, and the animals were allowed to recover for 5 days.
Sham control rats underwent the same operation and handling as the experimental animals, but without SNL.
Prior to initiating drug delivery, baseline behavioural testing data is obtained. At selected times after infusion of the Test or Control Article behavioural data can then be collected again.
The assessment of tactile allodynia consisted of measuring the withdrawal threshold of the paw ipsilateral to the site of nerve injury in response to probing with a series of calibrated von Frey filaments (innocuous stimuli). Animals were acclimated to the suspended wire-mesh cages for 30 min before testing. Each von Frey filament was applied perpendicularly to the plantar surface of the ligated paw of rats for 5 sec. A positive response was indicated by a sharp withdrawal of the paw. For rats, the first testing filament is 4.31. Measurements were taken before and after administration of test articles. […] The protocol was repeated until three changes in behaviour were determined (“up and down” method) (Chaplan et al., J. Neurosci. Methods 53:55-63 (1994)). The 50% paw withdrawal threshold was determined as (10^[Xf+kδ])/10,000, where Xf=the value of the last von Frey filament employed, k=Dixon value for the positive/negative pattern, and S=the logarithmic difference between stimuli. The cut-off values for rats were no less than 0.2 g and no higher than 15 g (5.18 filament); for mice no less than 0.03 g and no higher than 2.34 g (4.56 filament). A significant drop of the paw withdrawal threshold compared to the pre-treatment baseline is considered tactile allodynia. […]

Data set [3] can be described thus: Rat Early Pharmacokinetic (EPK) study. The data set is classed as in vivo. The following applies: PO, 30 mg/kg, formulation 10% DMSO/90% CMC; for Tmax: male, Sprague-Dawley, blood. The procedure:
Male Sprague-Dawley rats were dosed via oral (PO) gavage in the detailed formulation. Blood samples were collected from the animals at 6 timepoints out to 4 hours post-dose. Pharmacokinetic analysis was performed on the LC-MS/MS measured concentrations for each timepoint of each compound.

The target of data set [4] is T2, NaV1.7 channels expressed in HEK cells (Homo sapiens, UniProt Q15858).
T2 construct: expressed in transfected cells; host or cells: HEK cells
T2 sequence (Q15858 whole entry): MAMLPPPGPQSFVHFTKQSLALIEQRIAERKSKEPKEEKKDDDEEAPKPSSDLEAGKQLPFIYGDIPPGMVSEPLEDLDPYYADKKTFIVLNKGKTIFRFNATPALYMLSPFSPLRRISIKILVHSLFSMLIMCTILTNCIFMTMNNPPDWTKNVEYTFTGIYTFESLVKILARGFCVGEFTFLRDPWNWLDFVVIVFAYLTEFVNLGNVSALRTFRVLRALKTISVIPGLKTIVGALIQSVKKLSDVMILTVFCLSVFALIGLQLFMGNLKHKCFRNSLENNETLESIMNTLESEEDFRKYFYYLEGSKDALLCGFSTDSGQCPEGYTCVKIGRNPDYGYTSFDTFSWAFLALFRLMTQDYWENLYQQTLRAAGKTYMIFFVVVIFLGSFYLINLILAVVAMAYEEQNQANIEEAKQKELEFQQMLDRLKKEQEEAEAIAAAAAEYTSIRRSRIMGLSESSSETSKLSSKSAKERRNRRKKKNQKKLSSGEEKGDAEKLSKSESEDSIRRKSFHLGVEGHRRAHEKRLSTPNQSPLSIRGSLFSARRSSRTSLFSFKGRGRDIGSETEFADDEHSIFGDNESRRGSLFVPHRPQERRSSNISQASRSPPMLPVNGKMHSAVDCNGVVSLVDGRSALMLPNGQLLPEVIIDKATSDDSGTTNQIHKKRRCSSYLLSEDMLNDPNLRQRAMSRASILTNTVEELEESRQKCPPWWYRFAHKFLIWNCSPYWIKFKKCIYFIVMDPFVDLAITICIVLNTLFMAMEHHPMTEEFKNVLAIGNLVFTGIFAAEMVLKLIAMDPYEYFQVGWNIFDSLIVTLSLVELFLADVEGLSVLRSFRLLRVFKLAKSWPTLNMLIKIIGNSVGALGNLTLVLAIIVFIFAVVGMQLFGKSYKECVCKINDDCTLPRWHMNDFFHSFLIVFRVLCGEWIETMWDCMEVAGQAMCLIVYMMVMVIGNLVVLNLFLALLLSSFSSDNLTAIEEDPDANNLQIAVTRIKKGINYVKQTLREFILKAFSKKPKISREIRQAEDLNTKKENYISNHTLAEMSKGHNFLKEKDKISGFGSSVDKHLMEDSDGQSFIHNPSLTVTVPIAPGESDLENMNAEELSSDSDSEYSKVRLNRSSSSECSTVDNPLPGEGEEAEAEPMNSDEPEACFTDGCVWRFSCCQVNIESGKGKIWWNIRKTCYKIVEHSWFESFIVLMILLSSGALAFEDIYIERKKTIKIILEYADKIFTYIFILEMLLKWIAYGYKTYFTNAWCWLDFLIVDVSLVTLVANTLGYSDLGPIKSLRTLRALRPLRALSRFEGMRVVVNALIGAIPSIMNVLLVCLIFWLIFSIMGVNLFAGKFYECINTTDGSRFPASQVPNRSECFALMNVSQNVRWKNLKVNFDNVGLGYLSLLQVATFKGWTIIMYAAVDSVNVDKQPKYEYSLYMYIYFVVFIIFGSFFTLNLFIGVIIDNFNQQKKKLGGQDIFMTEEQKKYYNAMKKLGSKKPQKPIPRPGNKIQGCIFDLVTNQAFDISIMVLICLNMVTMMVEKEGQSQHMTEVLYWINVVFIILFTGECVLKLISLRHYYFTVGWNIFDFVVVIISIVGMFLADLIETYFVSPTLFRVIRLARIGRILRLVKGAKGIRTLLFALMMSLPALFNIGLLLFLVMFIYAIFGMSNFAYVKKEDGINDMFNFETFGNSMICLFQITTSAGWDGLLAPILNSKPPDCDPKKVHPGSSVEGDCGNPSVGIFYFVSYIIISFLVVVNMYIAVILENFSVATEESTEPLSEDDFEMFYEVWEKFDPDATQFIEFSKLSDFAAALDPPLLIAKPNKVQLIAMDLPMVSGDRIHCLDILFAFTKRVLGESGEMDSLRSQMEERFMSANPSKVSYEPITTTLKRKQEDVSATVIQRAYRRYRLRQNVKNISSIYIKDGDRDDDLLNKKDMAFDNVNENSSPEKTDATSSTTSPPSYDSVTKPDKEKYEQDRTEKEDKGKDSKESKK
Description: NaV1.7 voltage-clamp electrophysiological assay (enhancement of slow inactivation). Type of data set: cell-based. The procedure: To examine the effects of compounds on enhancement of slow inactivation of NaV1.7 and NaV1.8 channels expressed in HEK cells the culture media was replaced with an extracellular solution containing (in mM): 137 NaCl, 4 KCl, 1.8 CaCl2, 1 MgCl2, 10 HEPES, 10 glucose, pH adjusted to 7.4 with NaOH. The intracellular solution contained (in mM): 130 KCl, 1 MgCl2, 5 EGTA, 10 HEPES, 5 K2ATP, adjusted to pH 7.3 with KOH. Whole-cell recordings, preparation and application of test compounds were performed in a similar manner to the CaV3.2 electrophysiological assays. Voltage protocols were applied to quantify the effects of test compounds to enhance slow inactivation for NaV1.7 and NaV1.8.

Where [5] appears, read: voltage-dependence of half inactivation, HEK cells, whole-cell.

Structures are written as SMILES.

T1 sequence (O95180 whole entry): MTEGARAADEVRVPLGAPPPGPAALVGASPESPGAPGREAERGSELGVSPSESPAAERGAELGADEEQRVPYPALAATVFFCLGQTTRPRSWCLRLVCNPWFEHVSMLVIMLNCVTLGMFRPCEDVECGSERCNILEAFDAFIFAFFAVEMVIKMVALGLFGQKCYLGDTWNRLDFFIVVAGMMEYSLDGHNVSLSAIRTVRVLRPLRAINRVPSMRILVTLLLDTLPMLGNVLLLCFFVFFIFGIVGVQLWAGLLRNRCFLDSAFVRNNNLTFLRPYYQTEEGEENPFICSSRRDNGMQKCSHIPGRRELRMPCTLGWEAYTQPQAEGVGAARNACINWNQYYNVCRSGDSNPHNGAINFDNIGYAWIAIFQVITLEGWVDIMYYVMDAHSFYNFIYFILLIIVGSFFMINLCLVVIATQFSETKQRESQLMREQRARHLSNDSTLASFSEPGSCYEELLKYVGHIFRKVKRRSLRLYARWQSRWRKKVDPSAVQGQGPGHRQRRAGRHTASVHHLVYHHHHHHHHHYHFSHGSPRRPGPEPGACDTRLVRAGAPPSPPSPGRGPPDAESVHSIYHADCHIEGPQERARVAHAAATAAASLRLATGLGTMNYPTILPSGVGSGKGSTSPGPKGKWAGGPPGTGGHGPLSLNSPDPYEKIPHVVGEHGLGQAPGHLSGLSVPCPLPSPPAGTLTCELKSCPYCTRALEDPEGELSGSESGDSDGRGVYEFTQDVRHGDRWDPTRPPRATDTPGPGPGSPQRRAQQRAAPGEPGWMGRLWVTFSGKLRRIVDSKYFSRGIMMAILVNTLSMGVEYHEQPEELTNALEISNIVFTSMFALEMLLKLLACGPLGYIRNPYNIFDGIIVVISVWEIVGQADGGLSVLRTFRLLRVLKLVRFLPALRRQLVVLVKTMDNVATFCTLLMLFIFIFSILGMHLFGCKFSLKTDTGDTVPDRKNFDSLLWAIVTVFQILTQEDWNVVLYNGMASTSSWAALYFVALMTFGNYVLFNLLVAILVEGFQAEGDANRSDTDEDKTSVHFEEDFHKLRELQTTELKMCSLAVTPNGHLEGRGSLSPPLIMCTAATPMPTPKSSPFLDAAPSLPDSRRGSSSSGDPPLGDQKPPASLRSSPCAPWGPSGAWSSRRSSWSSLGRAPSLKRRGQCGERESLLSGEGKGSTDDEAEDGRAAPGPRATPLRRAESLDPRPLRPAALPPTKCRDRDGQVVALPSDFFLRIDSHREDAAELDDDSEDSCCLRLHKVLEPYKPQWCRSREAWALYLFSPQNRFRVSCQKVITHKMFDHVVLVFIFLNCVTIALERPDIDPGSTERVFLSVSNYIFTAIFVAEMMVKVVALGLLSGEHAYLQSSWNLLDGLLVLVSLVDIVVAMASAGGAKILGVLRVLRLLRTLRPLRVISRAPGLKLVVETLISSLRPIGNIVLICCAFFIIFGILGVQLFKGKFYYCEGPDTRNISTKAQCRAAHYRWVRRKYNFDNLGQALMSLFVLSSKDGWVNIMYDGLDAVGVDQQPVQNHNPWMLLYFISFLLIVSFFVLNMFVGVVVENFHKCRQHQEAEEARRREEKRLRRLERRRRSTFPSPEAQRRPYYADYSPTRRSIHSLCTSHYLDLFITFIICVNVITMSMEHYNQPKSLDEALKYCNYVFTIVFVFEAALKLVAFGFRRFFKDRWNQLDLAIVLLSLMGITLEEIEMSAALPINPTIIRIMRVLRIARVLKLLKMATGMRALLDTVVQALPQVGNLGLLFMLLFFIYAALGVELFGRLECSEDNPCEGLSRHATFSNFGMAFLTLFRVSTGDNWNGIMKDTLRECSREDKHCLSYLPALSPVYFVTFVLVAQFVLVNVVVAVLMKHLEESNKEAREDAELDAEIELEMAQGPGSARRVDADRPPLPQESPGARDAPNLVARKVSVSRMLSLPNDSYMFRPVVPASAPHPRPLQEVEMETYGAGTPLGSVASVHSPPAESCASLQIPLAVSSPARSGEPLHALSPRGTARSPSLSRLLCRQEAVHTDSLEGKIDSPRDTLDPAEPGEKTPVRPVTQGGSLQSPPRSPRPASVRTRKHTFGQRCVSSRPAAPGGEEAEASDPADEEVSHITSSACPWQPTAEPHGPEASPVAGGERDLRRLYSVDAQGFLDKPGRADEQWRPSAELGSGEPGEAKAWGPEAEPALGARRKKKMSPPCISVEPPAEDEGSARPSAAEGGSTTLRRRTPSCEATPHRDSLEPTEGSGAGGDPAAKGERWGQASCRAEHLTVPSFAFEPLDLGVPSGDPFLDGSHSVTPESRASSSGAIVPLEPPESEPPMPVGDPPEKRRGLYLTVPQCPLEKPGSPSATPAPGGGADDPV

In the case of `O=C(CN1CCNCC1=O)Nc1cc(F)c(F)cc1F` [Compound 2, 2-(2-oxopiperazin-1-yl)-N-(2,4,5-trifluorophenyl)acetamide], the “Fraction of current recovered at 5.1 s interval” value in data set [1] (5.1 s interval) was determined as 0.98. In addition, the “Fraction current remaining at −40 mV” value in data set [1] (at −40 mV) came to 0.58. In data set [1] (setting [5]), the V1/2 fast inactivation is given as −65 mV and the V1/2 slow inactivation is −80 mV.

On to `O=C1CNCCN1C(=O)CNc1cc(F)cc(F)c1` [Compound 3, 1-(2-(3,5-difluorophenylamino)acetyl)piperazin-2-one], for which the figures for the “Rat SNL Tactile Allodynia (% Antiallodynia)” value in data set [2] (1 hour) and in data set [2] (4 hours) were 1% and 4%, respectively.

In general, Tmax refers to the time from dosing to the highest level. With `O=C1CN(C(=O)CNc2cc(C(F)(F)F)cc(C(F)(F)F)c2)CCN1` [Compound 10, 4-(2-(3,5-bis(trifluoromethyl)phenylamino)acetyl)piperazin-2-one], in data set [3], the “Dose Normalized AUC” value is given as 1,192 nM*h. Further, in data set [3], the “Dose Normalized Cmax” value turned out to be 355 nM. For the same molecule, in data set [3], the Tmax was 72 min. The “Rat SNL Tactile Allodynia (% Antiallodynia)” value in data set [2] (1 hour) stood at 10%; in data set [2] (2 hours), 13%; in data set [2] (4 hours), 15%. Moreover, the values for the Fraction current remaining in data set [4] (concentration tested 10 μM) and in data set [4] (concentration tested 100 μM) were 0.91 and 0.74, respectively.

With `O=C1CN(C(=O)CNc2cc(F)cc(C(F)(F)F)c2)CCN1` [Compound 11, 4-(2-(3-fluoro-5-(trifluoromethyl)phenylamino)acetyl)piperazin-2-one], the “Rat SNL Tactile Allodynia (% Antiallodynia)” value in data set [2] (1 hour) is given as 9%; in data set [2] (2 hours), 4%; in data set [2] (4 hours), 1%.

In the case of `CC1(C)C(=O)NCCN1C(=O)CNc1cc(C(F)(F)F)cc(C(F)(F)F)c1` [Compound 12, 4-(2-(3,5-bis(trifluoromethyl)phenylamino)acetyl)-3,3-dimethylpiperazin-2-one], the entries for the “Rat SNL Tactile Allodynia (% Antiallodynia)” value in data set [2] (1 hour), in data set [2] (2 hours) and in data set [2] (4 hours) were 9%, 11% and 42%, respectively.

With `CC1(C)CN(CC(=O)Nc2cc(C(F)(F)F)cc(C(F)(F)F)c2)C(=O)CN1` [Compound 13, N-(3,5-bis(trifluoromethyl)phenyl)-2-(5,5-dimethyl-2-oxopiperazin-1-yl)acetamide], in data set [3], the “Dose Normalized AUC” value is 458 nM·h, the “Dose Normalized Cmax” value was determined as 172 nM and the Tmax came out at 40.2 min. Further, the “Rat SNL Tactile Allodynia (% Antiallodynia)” value in data set [2] (1 hour) was 16%. In data set [2] (2 hours), the “Rat SNL Tactile Allodynia (% Antiallodynia)” value worked out at 8%. Moreover, the “Rat SNL Tactile Allodynia (% Antiallodynia)” value in data set [2] (4 hours) was 5%. Further, the “Anti-allodynia in rat SNL tactile allodynia (in words)” value in data set [2] (at 60 minutes compared to baseline and post-SNL) is “significant anti-allodynia”.

Consider `O=C(CN1CCNCC1=O)NCc1cc(C(F)(F)F)cc(C(F)(F)F)c1` [Compound 20, N-(3,5-bis(trifluoromethyl)benzyl)-2-(2-oxopiperazin-1-yl)acetamide], for which the Fraction current remaining in data set [4] (concentration tested 30 μM) was determined as 0.87.

As for `O=C(NCCN1CCNCC1=O)c1cc(F)cc(C(F)(F)F)c1` [Compound 23, 3-fluoro-N-(2-(2-oxopiperazin-1-yl)ethyl)-5-(trifluoromethyl)benzamide], in data set [4] (concentration tested 30 μM), the Fraction current remaining turned out to be 0.91.
